Reference: patent US6376497B1, “Antifungal azole derivatives having a fluorinated vinyl group and process for preparing same” (Korea Research Institute of Chemical Technology, priority 1999, dated 2002)
In brackets after ≈: the same amount, converted by molar mass.

Legend:
Test in all cases: In vitro antifungal activity, microbroth dilution MIC
Assay type in all cases: cell-based
[1] = system: Cryptococcus neoformans B. 42419; conditions: Cry. neoformans B. 42419, RPMI-1640, 35° C., 4 to 48 hours
Method in brief: (§1)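 Broth microdilution adapted from NCCLS M27, in RPMI-1640 with 0.165 M MOPS, pH 7.0. Yeast or mould inoculum at 2×10^3 CFU/ml was mixed 1:1 with DMSO-derived compound solutions (200 to 0.10 μg/ml before mixing) and incubated at 35 °C for 4 to 48 h. MIC was the concentration showing no growth.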

[2] = system: Trichophyton mentagrophytes B. 32663; conditions: T. mentagrophytes B. 32663, RPMI-1640, 35° C., 4 to 48 hours
Method in brief: as §1

[3] = system: Candida albicans A. 10231; conditions: C. albicans A. 10231, RPMI-1640, 35° C., 4 to 48 hours
Method in brief: as §1

[4] = system: Candida albicans IFO. 1385; conditions: C. albicans IFO. 1385, RPMI-1640, 35° C., 4 to 48 hours
Method in brief: as §1

Candida krusei K. 11655 = conditions: C. krusei K. 11655, RPMI-1640, 35° C., 4 to 48 hours
Method in brief: as §1

[5] = system: Aspergillus niger A. 16404; conditions: A. niger A. 16404, RPMI-1640, 35° C., 4 to 48 hours
Method in brief: as §1

[6] = system: Cryptococcus neoformans A. 34144; conditions: Cry. neoformans A. 34144, RPMI-1640, 35° C., 4 to 48 hours
Method in brief: as §1

[7] = system: Candida parapsitosis A. 7330; conditions: C. parapsitosis A. 7330, RPMI-1640, 35° C., 4 to 48 hours
Method in brief: as §1

Candida albicans C1-2 = conditions: C. albicans C1-2, RPMI-1640, 35° C., 4 to 48 hours
Method in brief: as §1

[8] = system: Torulopsis glabrata B. 16205; conditions: T. glabrata B. 16205, RPMI-1640, 35° C., 4 to 48 hours
Method in brief: as §1

[9] = system: Cryptococcus neoformans IFM. 40092; conditions: Cry. neoformans IFM. 40092, RPMI-1640, 35° C., 4 to 48 hours
Method in brief: as §1

[10] = system: Candida tropicalis A. 13803; conditions: C. tropicalis A. 13803, RPMI-1640, 35° C., 4 to 48 hours
Method in brief: as §1

[11] = system: Candida pseudotropicalis K. 11658; conditions: C. pseudotropicalis K. 11658, RPMI-1640, 35° C., 4 to 48 hours
Method in brief: as §1

[12] = system: Trichophyton mentagrophytes A. 9129; conditions: T. mentagrophytes A. 9129, RPMI-1640, 35° C., 4 to 48 hours
Method in brief: as §1

[13] = system: Aspergillus furnigatus B. 19119; conditions: A furnigatus B. 19119, RPMI-1640, 35° C., 4 to 48 hours
Method in brief: as §1

Minimal inhibitory concentration (MIC) [1] [µg/mL] | Minimal inhibitory concentration (MIC) [2] | Minimal inhibitory concentration (MIC) [3] [µg/mL] | Minimal inhibitory concentration (MIC) [4] | Minimal inhibitory concentration (MIC) (Candida krusei K. 11655) [µg/mL] | Minimal inhibitory concentration (MIC) [5] [µg/mL] | Minimal inhibitory concentration (MIC) [6] [µg/mL] | Minimal inhibitory concentration (MIC) [7] [µg/mL] | Minimal inhibitory concentration (MIC) (Candida albicans C1-2) [µg/mL] | Minimal inhibitory concentration (MIC) [8] [µg/mL] | Minimal inhibitory concentration (MIC) [9] | Minimal inhibitory concentration (MIC) [10] [µg/mL] | Minimal inhibitory concentration (MIC) [11] [µg/mL] | Minimal inhibitory concentration (MIC) [12] [µg/mL] | Minimal inhibitory concentration (MIC) [13] [µg/mL] | Compound
0.78 (≈ 1.61 µM) | 0.78 µg/mL (≈ 1.61 µM) | 6.25 (≈ 12.9 µM) | 0.39 µg/mL (≈ 0.806 µM) | 6.25 (≈ 12.9 µM) | 6.25 (≈ 12.9 µM) | 0.78 (≈ 1.61 µM) | 12.5 (≈ 25.8 µM) | 12.5 (≈ 25.8 µM) | 6.25 (≈ 12.9 µM) | 0.39 µg/mL (≈ 0.806 µM) | 12.5 (≈ 25.8 µM) | 3.13 (≈ 6.47 µM) | 1.56 (≈ 3.22 µM) | 6.25 (≈ 12.9 µM) | FC(=Cc1ccc(Cl)cc1)OCC1COC(Cn2ccnc2)(c2ccc(Cl)cc2Cl)O1 (stereo not drawn) [Ex. 14]
0.20 (≈ 0.428 µM) | ≦0.10 μg/ml | 6.25 (≈ 13.4 µM) | ≦0.10 μg/ml | 6.25 (≈ 13.4 µM) | 1.56 (≈ 3.34 µM) | 0.20 (≈ 0.428 µM) | 6.26 (≈ 13.4 µM) | 3.13 (≈ 6.7 µM) | 3.13 (≈ 6.7 µM) | ≦0.10 μg/ml | 25.0 (≈ 53.5 µM) | 3.13 (≈ 6.7 µM) | 0.39 (≈ 0.835 µM) | 0.78 (≈ 1.67 µM) | FC(=Cc1cccc(F)c1)OCC1COC(Cn2ccnc2)(c2ccc(Cl)cc2Cl)O1 (stereo not drawn) [Ex. 15]
1.56 (≈ 3.34 µM) | 1.56 µg/mL (≈ 3.34 µM) | 12.5 (≈ 26.7 µM) | 0.78 µg/mL (≈ 1.67 µM) | 6.25 (≈ 13.4 µM) | 3.13 (≈ 6.7 µM) | 1.56 (≈ 3.34 µM) | 6.25 (≈ 13.4 µM) | 6.25 (≈ 13.4 µM) | 6.25 (≈ 13.4 µM) | 0.39 µg/mL (≈ 0.835 µM) | 25.0 (≈ 53.5 µM) | 3.13 (≈ 6.7 µM) | 1.56 (≈ 3.34 µM) | 3.13 (≈ 6.7 µM) | FC(=Cc1ccc(F)cc1)OCC1COC(Cn2ccnc2)(c2ccc(Cl)cc2Cl)O1 (stereo not drawn) [Ex. 16]
1.56 (≈ 3.13 µM) | 3.13 µg/mL (≈ 6.29 µM) | 12.5 (≈ 25.1 µM) | 0.78 µg/mL (≈ 1.57 µM) | 12.5 (≈ 25.1 µM) | 12.5 (≈ 25.1 µM) | 1.56 (≈ 3.13 µM) | 50.0 (≈ 100 µM) | 12.5 (≈ 25.1 µM) | 6.25 (≈ 12.6 µM) | 0.20 µg/mL (≈ 0.402 µM) | 12.5 (≈ 25.1 µM) | 6.25 (≈ 12.6 µM) | 12.5 (≈ 25.1 µM) | 6.25 (≈ 12.6 µM) | Cc1cc(C=C(F)OCC2COC(Cn3ccnc3)(c3ccc(Cl)cc3Cl)O2)ccc1Cl (stereo not drawn) [Ex. 17]
1.56 (≈ 2.94 µM) | 6.25 µg/mL (≈ 11.8 µM) | 6.25 (≈ 11.8 µM) | 0.78 µg/mL (≈ 1.47 µM) | 100 (≈ 188 µM) | 100 (≈ 188 µM) | 1.56 (≈ 2.94 µM) | >100 | 6.25 (≈ 11.8 µM) | 12.5 (≈ 23.5 µM) | 0.39 µg/mL (≈ 0.734 µM) | 25.0 (≈ 47.1 µM) | 100 (≈ 188 µM) | 12.5 (≈ 23.5 µM) | 50.0 (≈ 94.1 µM) | Cc1cccc(C(=C(F)OCC2COC(Cn3ccnc3)(c3ccc(Cl)cc3Cl)O2)C(F)(F)F)c1 (stereo not drawn) [Ex. 20]
1.56 (≈ 2.94 µM) | 6.25 µg/mL (≈ 11.8 µM) | 6.25 (≈ 11.8 µM) | 0.78 µg/mL (≈ 1.47 µM) | >100 | 100 (≈ 188 µM) | 0.78 (≈ 1.47 µM) | >100 | 6.25 (≈ 11.8 µM) | 12.5 (≈ 23.5 µM) | 0.39 µg/mL (≈ 0.734 µM) | 25.0 (≈ 47.1 µM) | 100 (≈ 188 µM) | 12.5 (≈ 23.5 µM) | 50.0 (≈ 94.1 µM) | Cc1ccc(C(=C(F)OCC2COC(Cn3ccnc3)(c3ccc(Cl)cc3Cl)O2)C(F)(F)F)cc1 (stereo not drawn) [Ex. 21]
1.56 (≈ 2.86 µM) | 12.5 µg/mL (≈ 22.9 µM) | 6.25 (≈ 11.5 µM) | 0.78 µg/mL (≈ 1.43 µM) | 100 (≈ 183 µM) | 100 (≈ 183 µM) | 1.56 (≈ 2.86 µM) | >100 | 12.5 (≈ 22.9 µM) | 25.0 (≈ 45.8 µM) | 0.78 µg/mL (≈ 1.43 µM) | 25.0 (≈ 45.8 µM) | 100 (≈ 183 µM) | 25.0 (≈ 45.8 µM) | 50.0 (≈ 91.7 µM) | CCc1ccc(C(=C(F)OCC2COC(Cn3ccnc3)(c3ccc(Cl)cc3Cl)O2)C(F)(F)F)cc1 (stereo not drawn) [Ex. 22]
1.56 (≈ 2.86 µM) | 6.25 µg/mL (≈ 11.5 µM) | 6.25 (≈ 11.5 µM) | 0.78 µg/mL (≈ 1.43 µM) | 100 (≈ 183 µM) | 100 (≈ 183 µM) | 1.56 (≈ 2.86 µM) | >100 | 6.25 (≈ 11.5 µM) | 12.5 (≈ 22.9 µM) | 0.39 µg/mL (≈ 0.715 µM) | 25.0 (≈ 45.8 µM) | 100 (≈ 183 µM) | 12.5 (≈ 22.9 µM) | 50.0 (≈ 91.7 µM) | Cc1ccc(C(=C(F)OCC2COC(Cn3ccnc3)(c3ccc(Cl)cc3Cl)O2)C(F)(F)F)cc1C (stereo not drawn) [Ex. 23]
1.56 (≈ 2.86 µM) | 6.25 µg/mL (≈ 11.5 µM) | 6.25 (≈ 11.5 µM) | 0.78 µg/mL (≈ 1.43 µM) | >100 | 100 (≈ 183 µM) | 0.78 (≈ 1.43 µM) | >100 | 6.25 (≈ 11.5 µM) | 12.5 (≈ 22.9 µM) | 0.39 µg/mL (≈ 0.715 µM) | 25.0 (≈ 45.8 µM) | 100 (≈ 183 µM) | 12.5 (≈ 22.9 µM) | 50.0 (≈ 91.7 µM) | Cc1cc(C)cc(C(=C(F)OCC2COC(Cn3ccnc3)(c3ccc(Cl)cc3Cl)O2)C(F)(F)F)c1 (stereo not drawn) [Ex. 24]
1.56 (≈ 2.67 µM) | 12.5 µg/mL (≈ 21.4 µM) | 6.25 (≈ 10.7 µM) | 1.56 µg/mL (≈ 2.67 µM) | 100 (≈ 171 µM) | 100 (≈ 171 µM) | 1.56 (≈ 2.67 µM) | >100 | 12.5 (≈ 21.4 µM) | 25.0 (≈ 42.7 µM) | 0.78 µg/mL (≈ 1.33 µM) | 50.0 (≈ 85.4 µM) | 100 (≈ 171 µM) | 25.0 (≈ 42.7 µM) | 100 (≈ 171 µM) | FC(OCC1COC(Cn2ccnc2)(c2ccc(Cl)cc2Cl)O1)=C(c1ccc(C(F)(F)F)cc1)C(F)(F)F (stereo not drawn) [Ex. 25]
